Measured values from patent publication US12472187B2, “Texaphyrin-Pt(IV) conjugates and compositions for use in overcoming platinum resistance” (BOARD OF REGENTS, THE UNIVERSITY OF TEXAS SYSTEM, priority 2014, dated 2025).

Assays:
[1] = test system: 2780CP cells; assay: MTT (tetrazolium dye reduction) proliferation assay, cisplatin resistant 2780CP cells; assay type: cell-based, human; conditions: ratio of IC50 in 2780CP to A2780; rows for cisplatin and 2 rest on cited IC50
Description: The A2780 line was established from a patient's biopsy prior to initiation of any chemotherapeutic regimen (Godwin, et al., 1992). The resistant cell line, 2780CP, used in this study, was established from A2780 cells, as described by Siddik, et al., 1998. The two cell lines have wild-type p53 genotype and/or function. Cells were grown in RPMI containing 10% fetal calf serum and antibiotics (100 μg/mL streptomycin and 100 U/mL penicillin).
The proliferation of exponential phase cultures of A2780 and 2780CP cells was assessed by tetrazolium dye reduction (Mosmann, 1983, which is incorporated herein by reference). […] After a total incubation time of 6 days at 37° C., 50 μL of a stock solution at 3 mg/ml of the tetrazolium dye, 3-(4,5-dimethylthiazol-2-yl)-2,5-diphenyltetrazolium bromide (MTT, Sigma Chemical) were added to each well, the plates incubated at 37° C. for 4 hours, whereupon the medium was removed, the formazan product dissolved in DMSO (50-100 μL) and absorbance values at 570 nm was measured using a microplate reader (Molecular Devices, Sunnyvale, CA). Absorbance values were corrected for background and then normalized to wells containing untreated cells to allow plate-to-plate comparisons. […]
The anti-proliferative effects of conjugates 4 and 5 were assessed with platinum sensitive human ovarian A2780 cells and the isogenic cisplatin resistant 2780CP cell line. […]

[2] = test system: A2780 cells; conditions: platinum sensitive A2780 cells; data from Arambula, et al., 2012; cited from earlier work
[3] = test system: 2780CP cells; conditions: cisplatin resistant 2780CP cells; data from Arambula, et al., 2012; cited from earlier work
[4] = test system: A2780 cancer cells; assay: MTT antiproliferative assay of Pt(IV), MGd and MGd+Pt(IV) on A2780 cancer cells; assay type: cell-based; conditions: agent alone, read-out: IC50 (growth inhibition), single agent
Description: A2780 cancer cells were incubated (37° C., 5% CO2 atmosphere, dark) in 96-wells plates at a concentration of 600 cells/well, in a culture medium containing 10% fetal bovine serum and supplemented with penicillin and streptomycin. After 15 h, drugs (Pt(IV), MGd, MGd+Pt(IV)) were added to cells (gradient of concentration, from 0 to 200 μM, 3-fold dilutions) and plates were incubated for five more days using the above conditions. After five days, MTT dye was added in each well (0.15 mg/well) and plates were left for 4 hours in the incubator. Then, supernatant was carefully removed and 50 μL of DMSO were added to dissolve MTT purple formazan crystals. The absorbance was read at 570 nm using a plate reader.

## N.N.[Cl][Pt][Cl] [Cisplatin]
[1]
  Resistance factor = IC50(2780CP)/IC50(A2780): 18.25
[2]
  IC50: 0.33 µM
[3]
  IC50: 7.3 µM

## CC(=O)[O-].CC(=O)[O-].CCc1c(CC)c2cc3nc(cnc4cc(OCCOCCOCCOC)c(OCCOCCOCCOC)cc4ncc4nc(cc1[n-]2)C(CCCO)=C4C)C(C)=C3CCCO.[Gd+3] [Compound 1, motexafin gadolinium]
[4]
  IC50: 78 µM
